According to patent publication US20250129021A1, “SMALL MOLECULE PROTEIN SYNTHESIS MODULATORS” (Interdict Bio, Inc., priority 2023, published 2025):

Experiments:
Format in all cases: biochemical
MYC = test: In vitro transcription-translation (IVTT) assay, MYC reporter; conditions: IVTT assay, HeLa S3 lysate, MYC reporter, normalized sfGFP/mCherry ratio; half-log dilutions 30 μM-0.1 μM, 2 hrs at 30° C.
Procedure, shortened: (§1)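 Reporter: mCherry, P2A, then 3×FLAG-target peptide-sfGFP fusion, IRES-initiated; HeLa S3 lysate IVTT; cpd dilutions 30 μM−0.1 μM half-log in 100% DMSO (dilution-plate conc); DNA added last; 2 h, 30° C; PBS quench.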

CCND1 = test: In vitro transcription-translation (IVTT) assay, CCND1 reporter; conditions: IVTT assay, HeLa S3 lysate, sfGFP/mCherry ratio
Procedure, shortened: as §1

NFKB1 = test: In vitro transcription-translation (IVTT) assay, NFKB1 reporter; conditions: HeLa S3 lysate, sfGFP/mCherry ratio
Method: In vitro transcription-translation assay setup: Each assay includes a master mix containing lysate and shared components, a 96-well plate containing compound titrations for testing, a 96-well DNA plate with reporter constructs to be tested, 96-well skirted PCR plates, and 96-well flat-bottom, black, fluorescent assay plates. Reaction materials setup: (A) Master mix—15 mL conical tube (3 mL of HeLa S3 Lysate described above; 0.6 mL of ThermoFisher Accessory Proteins (#88882); 1.2 ml of ThermoFisher Reaction Mix (#88882); 0.54 mL of nuclease-free Water); (B) 96-Well Master Mix+Compound Plate (Half-log dilutions (30 μM−0.1 μM) of 4 compounds of interest are prepared in 100% DMSO); 96-Well DNA Plate (Five DNA constructs are plated into single columns within the plate. Row 1 of the column contains nuclease free H2O, all other wells contain 110 ng/μL plasmid DNA). Reactions are started by mixing 155 μL of master mix and 3.5 μL of compound serial dilutions, then 9.1 μL of master mix+compound mixture is aliquoted across 5 96-well plates. Reactions begin with final addition of 2 μL of DNA for a 11.1 μL reaction volume in each well. The entire plate is sealed, and incubated for 2 hrs at 30° C. After 2 hrs, quench the assay using 45 μL of PBS, and transfer 50 μL to a flat-bottom black microplate Quantify the sfGFP and mCherry signals from each well on each plate, taking 3 reads of each plate, and perform data analysis below.
In vitro transcription-translation assay data analysis: Each plate is read three times in channels for both sfGFP and mCherry signals. The average signal across these 3 reads is then calculated for further analysis. Control wells containing no DNA reporter are subtracted from reporter wells in the same column to remove auto-fluorescence of the lysate. Then, the ratio of sfGFP/mCherry is calculated per well, and these ratios are averaged across the triplicate experiments on the same plate. Finally, the ratio of each titration concentration is normalized to the no drug control to create the normalized stalling metric. The error on this measurement is determined by propagating error through the averaging and normalization steps. Values are plotted and fit for IC50 determination for each test sequence and titration of compound.

MCL-1 = test: In vitro transcription-translation (IVTT) assay, MCL-1 reporter; conditions: IVTT assay, HeLa S3 lysate, sfGFP/mCherry ratio; read-out: MCL1 IC50
Procedure, shortened: as §1

CCNTB1 = test: In vitro transcription-translation (IVTT) assay, CCNTB1 reporter; conditions: HeLa S3 lysate, sfGFP/mCherry ratio
Procedure, shortened: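 Cell-free HeLa S3 lysate reactions expressing sfGFP/mCherry reporter constructs ran 2 h at 30 °C with compound from half-log DMSO series (30 μM–0.1 μM as prepared), then were quenched with PBS. No-DNA background was subtracted, and the sfGFP/mCherry ratio was normalized to the no-drug control and fit for IC50.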

## O=C(NCCc1cc(F)c(O)c(F)c1)O[C@@H]1[C@@H](O)CN[C@@H]1Cc1ccc(-c2cnco2)cc1 [V192432, (2R,3S,4S)-4-hydroxy-2-{[4-(1,3-oxazol-5-yl)phenyl]methyl}pyrrolidin-3-yl N-[2-(3,5-difluoro-4-hydroxyphenyl)ethyl]carbamate]
MYC
  IC50: < 10 µM
CCND1
  IC50: < 10 µM
NFKB1
  IC50: < 10 µM

## O=C(NCC[C@@H]1CCCN1)O[C@@H]1[C@@H](O)CN[C@@H]1Cc1ccc(-c2cnns2)cc1 [V192320, (2R,3S,4S)-4-hydroxy-2-{[4-(1,2,3-thiadiazol-5-yl)phenyl]methyl}pyrrolidin-3-yl N-{2-[(2S)-pyrrolidin-2-yl]ethyl}carbamate]
MYC
  IC50: < 10 µM
CCND1
  IC50: < 10 µM
NFKB1
  IC50: < 10 µM

## O=C(NCC[C@@H]1CCCN1)O[C@@H]1[C@@H](O)CN[C@@H]1Cc1ccc([N+](=O)[O-])cc1 [V192359, (2R,3S,4S)-4-hydroxy-2-[(4-nitrophenyl)methyl]pyrrolidin-3-yl N-{2-[(2S)-pyrrolidin-2-yl]ethyl}carbamate]
MYC
  IC50: < 10 µM
CCND1
  IC50: < 10 µM
NFKB1
  IC50: < 10 µM

## O=C(NCCC(O)C(F)(F)F)O[C@@H]1[C@@H](O)CN[C@@H]1Cc1ccc(-c2cnco2)cc1 (stereo partly drawn) [V192868, (2R,3S,4S)-4-hydroxy-2-{[4-(1,3-oxazol-5-yl)phenyl]methyl}pyrrolidin-3-yl N-(4,4,4-trifluoro-3-hydroxybutyl)carbamate]
MYC
  IC50: < 10 µM
CCND1
  IC50: < 10 µM
NFKB1
  IC50: < 10 µM

## (3S,4S,5R)-4-({[(3-fluorophenyl)methyl]carbamoyl}oxy)-5-{[4-(1,3-oxazol-5-yl)phenyl]methyl}pyrrolidin-3-yl acetate [V192392]
MYC
  IC50: < 10 µM
CCND1
  IC50: < 10 µM
NFKB1
  IC50: < 10 µM

## O=C(NCC[C@@H]1CCNCC1(F)F)O[C@@H]1[C@@H](O)CN[C@@H]1Cc1ccc(-c2cnco2)cc1 [V192234, (2R,3S,4S)-4-hydroxy-2-{[4-(1,3-oxazol-5-yl)phenyl]methyl}pyrrolidin-3-yl N-{2-[(4S)-3,3-difluoropiperidin-4-yl]ethyl}carbamate]
MYC
  IC50: < 10 µM
CCND1
  IC50: < 10 µM
NFKB1
  IC50: < 10 µM

## O=C(NCc1cccc(F)c1)O[C@@H]1[C@@H](O)CN[C@@H]1Cc1ccc(C(F)F)cc1 [V192274, (2R,3S,4S)-2-{[4-(difluoromethyl)phenyl]methyl}-4-hydroxypyrrolidin-3-yl N-[(3-fluorophenyl)methyl]carbamate]
MYC
  IC50: < 10 µM
CCND1
  IC50: < 10 µM
NFKB1
  IC50: < 10 µM

## O=C(NCc1cccc(F)c1)O[C@@H]1[C@@H](O)CN[C@@H]1Cc1ccc(-c2cnc(N3CC(F)(F)C3)s2)cc1 [V192410, (2R,3S,4S)-2-({4-[2-(3,3-difluoroazetidin-1-yl)-1,3-thiazol-5-yl]phenyl}methyl)-4-hydroxypyrrolidin-3-yl N-[(3-fluorophenyl)methyl]carbamate]
MYC
  IC50: < 10 µM
CCND1
  IC50: < 10 µM
NFKB1
  IC50: < 10 µM

## O=C(NCc1cccc(F)c1)O[C@@H]1[C@@H](O)CN[C@@H]1Cc1ccc(C(F)(F)F)cc1 [V192896, (2R,3S,4S)-4-hydroxy-2-{[4-(trifluoromethyl)phenyl]methyl}pyrrolidin-3-yl N-[(3-fluorophenyl)methyl]carbamate]
MYC
  IC50: < 10 µM
CCND1
  IC50: < 10 µM
NFKB1
  IC50: < 10 µM

## O=C(NCCC12CC(CN1)C2)O[C@@H]1[C@@H](O)CN[C@@H]1Cc1ccc(-c2cnco2)cc1 [V192847, (2R,3S,4S)-4-hydroxy-2-{[4-(1,3-oxazol-5-yl)phenyl]methyl}pyrrolidin-3-yl N-(2-{2-azabicyclo[2.1.1]hexan-1-yl}ethyl)carbamate]
MYC
  IC50: < 10 µM
CCND1
  IC50: < 10 µM
NFKB1
  IC50: < 10 µM

## O=C(NCCC1CCNCC1)O[C@@H]1[C@@H](O)CN[C@@H]1Cc1ccc(-c2ccc(Cl)s2)cc1 [V192261, (2R,3S,4S)-2-{[4-(5-chlorothiophen-2-yl)phenyl]methyl}-4-hydroxypyrrolidin-3-yl N-[2-(piperidin-4-yl)ethyl]carbamate]
MYC
  IC50: < 10 µM
CCND1
  IC50: < 10 µM
NFKB1
  IC50: < 10 µM

## O=C(NCc1ccc2c(c1)CCNC2)O[C@@H]1[C@@H](O)CN[C@@H]1Cc1ccc(-c2cnco2)cc1 [V192056, (2R,3S,4S)-4-hydroxy-2-{[4-(1,3-oxazol-5-yl)phenyl]methyl}pyrrolidin-3-yl N-(1,2,3,4-tetrahydroisoquinolin-6-ylmethyl)carbamate]
MYC
  IC50: < 10 µM
CCND1
  IC50: < 10 µM
MCL-1
  IC50: < 10 µM
CCNTB1
  IC50: < 10 µM

## O=C(NCc1cccc(F)c1)O[C@@H]1[C@@H](O)CN[C@@H]1Cc1ccc(-c2ccc3ncsc3c2)cc1 [V192103, (2R,3S,4S)-2-{[4-(1,3-benzothiazol-6-yl)phenyl]methyl}-4-hydroxypyrrolidin-3-yl N-[(3-fluorophenyl)methyl]carbamate]
MYC
  IC50: < 10 µM
CCND1
  IC50: 10 to 20 µM
MCL-1
  IC50: < 10 µM
CCNTB1
  IC50: < 10 µM

## O=C(NCC1CC1)O[C@@H]1[C@@H](O)CN[C@@H]1Cc1ccc(-c2cnco2)cc1 [V192262, (2R,3S,4S)-4-hydroxy-2-{[4-(1,3-oxazol-5-yl)phenyl]methyl}pyrrolidin-3-yl N-(cyclopropylmethyl)carbamate]
MYC
  IC50: < 10 µM
CCND1
  IC50: < 10 µM
MCL-1
  IC50: < 10 µM
CCNTB1
  IC50: < 10 µM

## O=C(NCC[C@@H]1CCCN1)O[C@@H]1[C@@H](O)CN[C@@H]1Cc1ccc(-c2cncs2)cc1 [V192113, (2R,3S,4S)-4-hydroxy-2-{[4-(1,3-thiazol-5-yl)phenyl]methyl}pyrrolidin-3-yl N-{2-[(2S)-pyrrolidin-2-yl]ethyl}carbamate]
MYC
  IC50: < 10 µM
CCND1
  IC50: < 10 µM
MCL-1
  IC50: < 10 µM
CCNTB1
  IC50: < 10 µM

## O=C(NCc1cccc(-n2ccnc2)c1)O[C@@H]1[C@@H](O)CN[C@@H]1Cc1ccc(-c2cnco2)cc1 [V192167, (2R,3S,4S)-4-hydroxy-2-{[4-(1,3-oxazol-5-yl)phenyl]methyl}pyrrolidin-3-yl N-{[3-(imidazol-1-yl)phenyl]methyl}carbamate]
MYC
  IC50: < 10 µM
CCND1
  IC50: < 10 µM
MCL-1
  IC50: < 10 µM
CCNTB1
  IC50: < 10 µM

## O=C(NCc1cccc(F)c1)O[C@@H]1[C@@H](O)CN[C@@H]1Cc1cccnc1 [V190519, (2R,3S,4S)-4-hydroxy-2-(pyridin-3-ylmethyl)pyrrolidin-3-yl N-[(3-fluorophenyl)methyl]carbamate]
MYC
  IC50: 20 to 30 µM
CCND1
  IC50: > 30 µM
MCL-1
  IC50: > 30 µM
CCNTB1
  IC50: 20 to 30 µM

## COc1ccc(C[C@H]2NC[C@H](O)[C@H]2OC(=O)NCc2ccnc(N3CC(F)(F)C3)c2)cc1 [V192066, (2R,3S,4S)-4-hydroxy-2-[(4-methoxyphenyl)methyl]pyrrolidin-3-yl N-{[2-(3,3-difluoroazetidin-1-yl)pyridin-4-yl]methyl}carbamate]
MYC
  IC50: < 10 µM
CCND1
  IC50: < 10 µM
MCL-1
  IC50: < 10 µM
CCNTB1
  IC50: 10 to 20 µM

## O=C(NCCC1CCNCC1)O[C@@H]1[C@@H](O)CN[C@@H]1Cc1ccc(-c2ccc(C(F)(F)F)cc2)cc1 [V192052, (2R,3S,4S)-4-hydroxy-2-{[4′-(trifluoromethyl)-[1,1′-biphenyl]-4-yl]methyl}pyrrolidin-3-yl N-[2-(piperidin-4-yl)ethyl]carbamate]
MYC
  IC50: > 30 µM
CCND1
  IC50: > 30 µM
MCL-1
  IC50: > 30 µM
CCNTB1
  IC50: > 30 µM
